Data taken from US11370774B2, “Substituted benzofuran, benzopyrrole, benzothiophene, and structurally related complement inhibitors” (BioCryst Pharmaceuticals, Inc., priority 2018, dated 2022).

target: Factor D (Homo sapiens (Human), UniProt P00746); experiment: Factor D esterolytic assay (Z-Lys-SBzl substrate, DTNB, 405 nm); assay type: biochemical; conditions: Z-Lys-SBzl 1.29 mM, pH 7.5, 10% DMSO, tested a minimum of three times, read-out: Measured Ki (IC50) Value for Compounds: IC50
How it was run: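 Human Factor D ([…]) with 1.29 mM Z-Lys-SBzl in 100 mM HEPES, 500 mM NaCl, pH 7.5, 10% DMSO; substrate added immediately or after room-temperature preincubation. Released thiol reacted with DTNB, rate followed at 405 nm for 600 sec, 690 nm background subtracted. IC50 from percent inhibition versus uninhibited rate, n≥3.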

Sequence of Factor D (P00746 26-253): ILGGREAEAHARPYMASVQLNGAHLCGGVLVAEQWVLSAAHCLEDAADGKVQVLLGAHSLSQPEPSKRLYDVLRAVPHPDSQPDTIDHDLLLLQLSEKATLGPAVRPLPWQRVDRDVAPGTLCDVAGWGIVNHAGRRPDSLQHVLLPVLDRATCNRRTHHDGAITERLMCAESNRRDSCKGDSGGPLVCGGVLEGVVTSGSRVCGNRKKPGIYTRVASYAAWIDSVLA

Row | IC50 [nM] | Compound
1 | < 1000 | NCc1cc(F)cc(-c2cc(COc3ccccc3CC(=O)O)cc3[nH]ccc23)c1 [Compound 69e, 2-(2-((4-(3-(aminomethyl)-5-fluorophenyl)-1H-indol-6-yl)methoxy)phenyl)acetic acid]
2 | < 1000 | NCc1cccc(-c2cc(COc3ccccc3CC(=O)O)cc3[nH]ccc23)c1 [Compound 70a, 2-(2-((4-(3-(aminomethyl)phenyl)-1H-indol-6-yl)methoxy)phenyl)acetic acid]
3 | < 1000 | NCc1cccc(-c2cc(COc3ccccc3CC(=O)O)c3nccn3c2)c1 [Compound 71e, 2-(2-((6-(3-(aminomethyl)phenyl)imidazo[1,2-a]pyridin-8-yl)methoxy)phenyl)acetic acid]
4 | < 1000 | C[C@H](N)c1cccc(-c2cc(COc3ccccc3CC(=O)O)cc3ccoc23)c1 [Compound 72c, (S)-2-(2-((7-(3-(1-aminoethyl)phenyl)benzofuran-5-yl)methoxy)phenyl)acetic acid]
5 | < 1000 | NCc1cc(F)cc(-c2cc(COc3ccccc3CC(=O)O)cc3ccoc23)c1 [Compound 73c, 2-(2-((7-(3-(aminomethyl)-5-fluorophenyl)benzofuran-5-yl)methoxy)phenyl)acetic acid]
6 | < 1000 | NCc1cc(-c2cc(COc3ccccc3CC(=O)O)cc3ccoc23)ccn1 [Compound 74c, 2-(2-((7-(2-(aminomethyl)pyridin-4-yl)benzofuran-5-yl)methoxy)phenyl)acetic acid]
7 | < 1000 | NCc1c(F)ccc(-c2cc(COc3ccccc3CC(=O)O)cc3ccoc23)c1F [Compound 75c, 2-(2-((7-(3-(aminomethyl)-2,4-difluorophenyl)benzofuran-5-yl)methoxy)phenyl)acetic acid]
8 | < 1000 | NCc1cccc(-c2cc(COc3ccccc3CC(=O)O)cc3cc(CO)oc23)c1 [Compound 76f, 2-(2-((7-(3-(aminomethyl)phenyl)-2-(hydroxymethyl)benzofuran-5-yl)methoxy)phenyl)acetic acid]
9 | < 1000 | N[C@H](CO)c1cc(-c2cc(COc3ccccc3CC(=O)O)cc3ccoc23)ccn1 [Compound 77c, (S)-2-(2-((7-(2-(1-amino-2-hydroxyethyl)pyridin-4-yl)benzofuran-5-yl)methoxy)phenyl)acetic acid]
10 | < 1000 | C[C@@H](N)c1cccc(-c2cc(COc3ccccc3CC(=O)O)cc3ccoc23)c1 [Compound 78c, (R)-2-(2-((7-(3-(1-aminoethyl)phenyl)benzofuran-5-yl)methoxy)phenyl)acetic acid]
11 | < 1000 | NCc1cccc(-c2cc(COc3ccccc3CC(=O)O)cc3ccoc23)n1 [Compound 79c, 2-(2-((7-(6-(aminomethyl)pyridin-2-yl)benzofuran-5-yl)methoxy)phenyl)acetic acid]
12 | < 1000 | NCc1nccc(-c2cc(COc3ccccc3CC(=O)O)cc3ccoc23)c1F [Compound 80e, 2-(2-((7-(2-(aminomethyl)-3-fluoropyridin-4-yl)benzofuran-5-yl)methoxy)phenyl)acetic acid]
13 | > 10000 | Cc1c[nH]c2cc(C(=O)Nc3ccccc3CC(=O)O)cc(-c3cccc(CN)c3)c12 [Compound 81d, 2-(2-(4-(3-(aminomethyl)phenyl)-3-methyl-1H-indole-6-carboxamido)phenyl)acetic acid]
14 | < 1000 | NCc1cccc(-c2cc(COc3ccccc3CC(=O)O)cc3cc(C4CCCC4)oc23)c1 [Compound 82f, 2-(2-((7-(3-(aminomethyl)phenyl)-2-cyclopentylbenzofuran-5-yl)methoxy)phenyl)acetic acid]
15 | < 1000 | NCc1cccc(-c2nc(C(=O)Nc3ccccc3CC(=O)O)cc3[nH]ccc23)c1 [Compound 83h, 2-(2-(4-(3-(aminomethyl)phenyl)-1H-pyrrolo[3,2-c]pyridine-6-carboxamido)phenyl)acetic acid]
16 | < 1000 | Cc1cc2cc(COc3ccccc3CC(=O)O)cc(-c3cccc(CN)c3)c2o1 [Compound 84f, 2-(2-((7-(3-(aminomethyl)phenyl)-2-methylbenzofuran-5-yl)methoxy)phenyl)acetic acid]
17 | < 1000 | N=C(N)c1cccc(-c2cc(COc3ccccc3CC(=O)O)cc3ccoc23)c1 [Compound 85c, 2-(2-((7-(3-carbamimidoylphenyl)benzofuran-5-yl)methoxy)phenyl)acetic acid]
18 | 1000 to 10000 | NC(=O)c1cccc(-c2cc(COc3ccccc3CC(=O)O)cc3ccoc23)c1 [Compound 85d, 2-(2-((7-(3-carbamoylphenyl)benzofuran-5-yl)methoxy)phenyl)acetic acid]
19 | < 1000 | NCc1cccc(-c2cc(COc3ccccc3CC(=O)O)nc3[nH]ccc23)c1F [Compound 86b, 2-(2-((4-(3-(aminomethyl)-2-fluorophenyl)-1H-pyrrolo[2,3-b]pyridin-6-yl)methoxy)phenyl)acetic acid]

Row | IC50 [nM] | Compound
20 | > 10000 | Nc1nccc2ccc(-c3cc(COc4ccccc4CC(=O)O)cc4ccoc34)cc12 [Compound 87c, 2-(2-((7-(1-aminoisoquinolin-7-yl)benzofuran-5-yl)methoxy)phenyl)acetic acid]
21 | < 1000 | NCc1cccc(-c2cc(COc3ccccc3CC(=O)O)cc3cc(C4CC4)oc23)c1F [Compound 88b, 2-(2-((7-(3-(aminomethyl)-2-fluorophenyl)-2-cyclopropylbenzofuran-5-yl)methoxy)phenyl)acetic acid]
22 | < 1000 | Cc1cc(CN)cc(-c2cc(COc3ccccc3CC(=O)O)cc3ccoc23)c1 [Compound 89c, 2-(2-((7-(3-(aminomethyl)-5-methylphenyl)benzofuran-5-yl)methoxy)phenyl)acetic acid]
23 | < 1000 | NCc1nccc(-c2cc(COc3ccc(F)cc3CC(=O)O)cc3ccoc23)c1F [Compound 90d, 2-(2-((7-(2-(aminomethyl)-3-fluoropyridin-4-yl)benzofuran-5-yl)methoxy)-5-fluorophenyl)acetic acid]
24 | < 1000 | Cc1nc2cc(COc3ccccc3CC(=O)O)cc(-c3cccc(CN)c3)c2o1 [Compound 91h, 2-(2-((7-(3-(aminomethyl)phenyl)-2-methylbenzo[d]oxazol-5-yl)methoxy)phenyl)acetic acid]
25 | < 1000 | Cc1cc2cc(COc3ccccc3CC(=O)O)cc(-c3cccc(CN)c3F)c2o1 [Compound 92b, 2-(2-((7-(3-(aminomethyl)-2-fluorophenyl)-2-methylbenzofuran-5-yl)methoxy)phenyl)acetic acid]
26 | < 1000 | NCc1cccc(-c2cn3cccc3c(C(=O)Nc3ccccc3CC(=O)O)n2)c1 [Compound 93h, 2-(2-(3-(3-(aminomethyl)phenyl)pyrrolo[1,2-a]pyrazine-1-carboxamido)phenyl)acetic acid]
27 | < 1000 | NCc1cccc(-c2cc(COc3ccccc3CC(=O)O)cc3cc(CO)oc23)c1F [Compound 94c, 2-(2-((7-(3-(aminomethyl)-2-fluorophenyl)-2-(hydroxymethyl)benzofuran-5-yl)methoxy)phenyl)acetic acid]
28 | < 1000 | NCCc1cccc(-c2cc(COc3ccccc3CC(=O)O)cc3ccoc23)c1 [Compound 95c, 2-(2-((7-(3-(2-aminoethyl)phenyl)benzofuran-5-yl)methoxy)phenyl)acetic acid]
29 | < 1000 | COCc1cc2cc(COc3ccccc3CC(=O)O)cc(-c3cccc(CN)c3)c2o1 [Compound 96e, 2-(2-((7-(3-(aminomethyl)phenyl)-2-(methoxymethyl)benzofuran-5-yl)methoxy)phenyl)acetic acid]
30 | < 1000 | Cn1ccc2c(-c3cccc(CN)c3F)cc(COc3ccccc3CC(=O)O)cc21 [Compound 97b, 2-(2-((4-(3-(aminomethyl)-2-fluorophenyl)-1-methyl-1H-indol-6-yl)methoxy)phenyl)acetic acid]
31 | < 1000 | CC(O)c1cc2cc(COc3ccccc3CC(=O)O)cc(-c3cccc(CN)c3)c2o1 (centres unmarked) [Compound 98e, 2-(2-((7-(3-(aminomethyl)phenyl)-2-(1-hydroxyethyl)benzofuran-5-yl)methoxy)phenyl)acetic acid]
32 | < 1000 | COCc1cc2cc(COc3ccccc3CC(=O)O)cc(-c3cccc(CN)c3F)c2o1 [Compound 99b, 2-(2-((7-(3-(aminomethyl)-2-fluorophenyl)-2-(methoxymethyl)benzofuran-5-yl)methoxy)phenyl)acetic acid]
33 | 1000 to 10000 | CC(N)c1cccc(-c2cc(COc3ccccc3CC(=O)O)cc3ccoc23)n1 (centres unmarked) [Compound 100c, 2-(2-((7-(6-(1-aminoethyl)pyridin-2-yl)benzofuran-5-yl)methoxy)phenyl)acetic acid]
34 | < 1000 | NCc1cccc(-c2cc(COc3ccccc3CC(=O)O)cn3ccnc23)c1 [Compound 102g, 2-(2-((8-(3-(aminomethyl)phenyl)imidazo[1,2-a]pyridin-6-yl)methoxy)phenyl)acetic acid]
35 | < 1000 | NCc1cccc(-c2cc(COc3ccccc3CC(=O)O)cc3cc(C(O)C(F)(F)F)oc23)c1 (centres unmarked) [Compound 103d, 2-(2-((7-(3-(aminomethyl)phenyl)-2-(2,2,2-trifluoro-1-hydroxyethyl)benzofuran-5-yl)methoxy)phenyl)acetic acid]
36 | < 1000 | CC(C)(O)c1cc2cc(COc3ccccc3CC(=O)O)cc(-c3cccc(CN)c3)c2o1 [Compound 104e, 2-(2-((7-(3-(aminomethyl)phenyl)-2-(2-hydroxypropan-2-yl)benzofuran-5-yl)methoxy)phenyl)acetic acid]
37 | < 1000 | NCc1cccc(-c2cc(COc3ccccc3CC(=O)O)cc3cc(C(O)C4CC4)oc23)c1 (centres unmarked) [Compound 105c, 2-(2-((7-(3-(aminomethyl)phenyl)-2-(cyclopropyl(hydroxy)methyl)benzofuran-5-yl)methoxy)phenyl)acetic acid]
38 | 1000 to 10000 | NCc1cncc(-c2cc(COc3ccccc3CC(=O)O)cc3ccoc23)c1 [Compound 106c, 2-(2-((7-(5-(aminomethyl)pyridin-3-yl)benzofuran-5-yl)methoxy)phenyl)acetic acid]
